# Results taken from patent US8217084B2, “Medicinal products incorporating bound organosulfur groups” (Allium Vitalis Incorporated, priority 2004, dated 2012).
# Entries after “also recorded” stand apart in the source; their conditions may differ. Read-outs that look alike come from different tables or passages of the source.
# Columns and labels:
# [1] = in vivo; cited from earlier work
# [2] = after 25 g fresh garlic or 60 mg pure allicin; cited from earlier work
# [3] = cited from earlier work
# [4] = n-octanol/water (stated for DADS); cited from earlier work
# [5] = Reaction with hydrogen peroxide, HPLC
# Text: Hydrogen peroxide (H2O2) was chosen for use as the model oxidant because it is readily available, sufficiently reactive to produce the desired effects, and sufficiently stable to be readily observed. The availability of an inexpensive real-time probe for H2O2 measurement (the ABD-3001, which could be leased by the month from Universal Sensors Inc.) was also a consideration.
# The specific ability of allyl mercaptan in this regard was deemed worthy of being experimentally investigated because further experiments were planned that would rely on this ability. […] Therefore, HPLC alone was used to measure the reactants and products.
# In FIG. 7, the concentrations are reported as “uM allyl” to take into account the fact that each DADS molecule contains two allyl groups, while each AllylSH molecule has only one.
# Another experiment was performed at approximate body temperature (37 degrees C.) and calculated membrane AllylSH concentration.
# [6] = pH dependence of reaction rate with cysteine
# CYP2E1 enzyme = CYP2E1 enzyme (Rattus norvegicus, UniProt P05182); conditions: cited from earlier work
# Sequence of CYP2E1 enzyme (P05182 whole entry): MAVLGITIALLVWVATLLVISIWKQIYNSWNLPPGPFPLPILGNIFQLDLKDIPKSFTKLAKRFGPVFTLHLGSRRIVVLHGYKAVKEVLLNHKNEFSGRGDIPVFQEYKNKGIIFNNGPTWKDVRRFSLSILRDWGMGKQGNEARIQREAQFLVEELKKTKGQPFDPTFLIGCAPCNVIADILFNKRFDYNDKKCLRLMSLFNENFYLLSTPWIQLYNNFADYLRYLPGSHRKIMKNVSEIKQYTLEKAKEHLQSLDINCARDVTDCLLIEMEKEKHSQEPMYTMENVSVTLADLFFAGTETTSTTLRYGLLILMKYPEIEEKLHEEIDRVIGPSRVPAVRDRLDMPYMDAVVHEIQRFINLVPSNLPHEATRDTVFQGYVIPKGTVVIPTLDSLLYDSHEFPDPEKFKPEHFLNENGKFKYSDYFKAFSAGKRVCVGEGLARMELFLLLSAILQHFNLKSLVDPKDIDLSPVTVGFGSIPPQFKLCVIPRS
# CYP2D6 = conditions: in 30 minutes; cited from earlier work
# LDL = conditions: cited from earlier work
# [7] = chemiluminescence assay; cited from earlier work
# [8] = cited from earlier work; remark: listed apart in the source
# [9] = tested on: total glutathione level of cells; conditions: cited from earlier work
# [10] = in vivo; cited from earlier work; remark: listed apart in the source
# [11] = cited from earlier work; for pKa: thiol group
# nematodes = conditions: cited from earlier work
# E-coli O157:H7 = conditions: cited from earlier work
# papain = target: T1, papain (Carica papaya, UniProt P00784); conditions: cited from earlier work
# T1 sequence (P00784 134-345): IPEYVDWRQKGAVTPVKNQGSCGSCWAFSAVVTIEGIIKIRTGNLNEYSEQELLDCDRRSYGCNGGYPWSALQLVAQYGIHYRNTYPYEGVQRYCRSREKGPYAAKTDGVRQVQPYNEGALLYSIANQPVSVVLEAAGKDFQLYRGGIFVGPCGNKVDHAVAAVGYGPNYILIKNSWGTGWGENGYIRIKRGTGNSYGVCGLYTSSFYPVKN
# [12] = tested on: glutathione content of cells; conditions: daily dosage of 1000 mg; cited from earlier work
compound,measurement,setting,value
C=CCSSC=CC[S+]([O-])CC=C (mixture of isomers) [ajoene],production of breath AMS and acetone,[1],produce both breath AMS and acetone
"C=CCS[S+]([O-])CC=C (stereo not shown) [Allicin, DiAllylThioSulfinate]","detectability in blood, urine, or stool",[2],undetectable
same,Reaction in Blood Half-life,[3],<1 min
same,Reaction in Blood Product (moles),[3],(1.6) moles
same,time to metabolize to allyl mercaptan,[3]; red blood cells exposed to allicin,less than one minute
same,partition coefficient,[4],12.3
"C=CCS [AllylSH, AllylThiol]",formation of diallyl disulfide,"[5]; 0.85 mM AllylSH, 10 mM H2O2, 15 minute",essentially linear with time
"C=CCSSCC=C [DADS, Diallyl Disulfide]",dependence of reaction rate with cysteine on pH,[6],dramatically increasing between pH 8 and 9
same,inhibition of CYP2E1,CYP2E1 enzyme,potent inhibitor
same,production of breath AMS and acetone,[1],produce both breath AMS and acetone
same,Reaction in Blood Half-life,[3],60 min
same,Reaction in Blood Product (moles),[3],(0.8) moles
same,allicin yield,"[5]; 0.2 mM DADS, 0.022 mM AllylSH, 5.0 mM H2O2, 37 degrees C., 11 minutes",0.015 mM
same,rate of allicin formation,"[5]; 0.2 mM DADS, 5.0 mM H2O2, room temperature, no AllylSH",essentially linear with time
same,partition coefficient,[4],25.0
same,conversion of DADS to allicin,CYP2D6,approximately 30%
"C=CCSCC=C [DAS, diallyl sulfide]",production of breath AMS and acetone,[1],only produces breath acetone
"C=CCSSSCC=C [DATS, Diallyl Trisulfide]",production of breath AMS and acetone,[1],produce both breath AMS and acetone
same,Reaction in Blood Half-life,[3],4 min
same,Reaction in Blood Product (moles),[3],(0.8) moles
C=CCSC[C@H](NC(C)=O)C(=O)O [N-acetyl-S-allylcysteine],effect on Cu2+ induced LDL oxidation,LDL,significantly reduce
"C=CCSC[C@H](N)C(=O)O [SAC, S-allylcysteine]",effect on Cu2+ induced LDL oxidation,LDL,significantly reduce
same,production of breath AMS and acetone,[1],produces no breath AMS or acetone
"C=CCSSC[C@H](N)C(=O)O [SAMC, S-AllylMercaptoCysteine]",effect on Cu2+ induced LDL oxidation,LDL,significantly reduce
same,bioavailable (ingested),[1],100%
same,production of breath AMS and acetone,[1],produce both breath AMS and acetone
same,antioxidant or pro-oxidant activity,[7],most effective antioxidants
same,Reaction in Blood Half-life,[3],3 min
same,Reaction in Blood Product (moles),[3],(0.8) moles
same,protection from acetaminophen poisoning,"[8]; post treatment, single dose 200 mg/kg",protective
same,protection from acetaminophen poisoning,[8]; pretreatment,protect mice from acetaminophen poisoning
same,total glutathione level of cells,[9],significantly increase the total glutathione level of cells; also recorded: significant increases the total glutathione level of cells
Cc1c(C)c2c(c(C)c1O)CC[C@@](C)(CCC[C@H](C)CCC[C@H](C)CCCC(C)C)O2 [alpha-tocopherol],partition coefficient,[4],550
NCCS [cysteamine],radioprotective effect,[10],effective
"N[C@@H](CS)C(=O)O [cysteine, Cysteine]",pKa,[11],approximately 8.5
same,pKa,[11]; listed as CySH,8.44
same,radioprotective effect,[10],effective
CCCS[S+]([O-])CCC (stereo not shown) [dipropylthiosulfinate],nematicidal activity,nematodes,most effective compound found
"N[C@@H](CCC(=O)N[C@@H](CS)C(=O)NCC(=O)O)C(=O)O [glutathione, Glutathione]",pKa of transformation to thiazoline form,[11],5.3
same,pKa,[11],approximately 8.5
same,antioxidant or pro-oxidant activity,[7],most effective antioxidants
same,radioprotective effect,[10],effective
N[C@@H](CCS)C(=O)O [homocysteine],radioprotective effect,[10],effective
C=CCS[S+](C)[O-] (stereo not shown) [methyl allyl thiosulfinate],activity against E-coli O157:H7,E-coli O157:H7,effective against E-coli O157:H7
CS[S+](C)[O-] (stereo not shown) [methyl methane thiosulfinate],activity against E-coli O157:H7,E-coli O157:H7,effective against E-coli O157:H7
"O=[N+]([O-])c1ccc([Se]S(=O)(=O)O)cc1 [selenosulfide, pNO2Ph-Se—SO3^−]",limit of inhibition of SH-dependent enzyme,papain,~50%
O=C1O[C@H]([C@@H](O)CO)C(O)=C1O [vitamin C],mean percentage decrease of glutathione,[12],60%
S-allylcysteine sulfoxide [alliin],effect on Cu2+ induced LDL oxidation,LDL,significantly reduce
SnO2Ph-Se—S—SO3^− [S-aryl selenenylthiosulphate],inactivation of the enzyme,papain; by the first data point,> 90%
